Like-named read-outs stand apart in the source and are kept apart here.
Assays:
[1] = test system: Staphylococcus aureus ATCC 6538P; test: Respiration assay (Example 1), electrochemical ferricyanide/DCIP mediator consumption; format: cell-based; details: effector 10 mM; for slope: 5 μM DCIP, 50 mM ferricyanide, 35° C.; for normalized slope: area normalized; for relative activity: buffer set as 100%
Protocol: (§1) The ferricyanide solution is added so that the final ferricyanide concentrations is 50 mM.
(§2) The bacterial suspensions were adjusted to a MacFarland Standard of 5.0 (5.0×10sup.8 cfu/mL) or an optical density of 1.2 measured at 625 nm and cell growth was stopped by cooling the bacterial suspension for a minimum of 15 min in an ice-bath.

[2] = test system: Enterobacter aerogenes ATCC 13048e; test: as above; format: cell-based; details: effector 10 mM; for slope: 5 μM DCIP, 50 mM ferricyanide, 35° C.; for normalized slope: area normalized; for relative activity: buffer set as 100%
Protocol: as §1, §2

E. coli B = test: Relative respiratory activity with 22 effectors (Example 3); format: cell-based; details: Escherichia coli, 5 μM DCIP, no effector = 100%, n = 10; for activity at 10000 µM: effector 10 mM, read-out: relative %-respiratory activity; for activity at 20000 µM: effector 20 mM
Description: (§3) In this example, each microorganism is subjected to 22 different effector compounds in addition to control measurements. […] For each microorganism, duplicate measurements were made of 22 different effector compounds. In addition, duplicate measurements were made a control test containing no effector compound. One additional measurement was made of a control solution containing the microorganism with ferricyanide but without effector or DCIP.
(§4) In this example, each normalized data set containing duplicate measurements for each of 22 effector compounds is referenced to the duplicate internal controls to allow batch-to-batch comparison. The obtained signals of charge per unit electrode area for the duplicate control measurements are averaged and set at 100% respiratory cycle activity. […] The data set used to generate pattern recognition plots consists of 5 replicate batches (each batch containing duplicate measurements for each of 22 effector compounds) for each cell culture (10 strains). This is used to generate a 50 (columns)×22 (rows) matrix. The matrix is imported into MATLAB (Version 6.0). Factor analysis is performed using the MATLAB Chemometric Toolbox (Version 2.3) and involves the generation of reduced eigenvectors to determine the optimal number of factors, examination of the resulting residuals plots for randomness, and the generation of scores for the first four principle components.

E. coli Neotype = test: as above; format: cell-based; details: Escherichia coli, 5 μM DCIP, no effector = 100%, n = 26; for activity at 10000 µM: effector 10 mM, read-out: relative %-respiratory activity; for activity at 20000 µM: effector 20 mM
Description: as §3, §4

E. coli JM105 = test: as above; format: cell-based; details: Escherichia coli; for activity at 20000 µM: effector 20 mM
Description: as §3, §4

E. coli HB101 = test: as above; format: cell-based; details: Escherichia coli; for activity at 20000 µM: effector 20 mM
Description: as §3, §4

S. aureus ATCC6538P = test: as above; format: cell-based, Staphylococcus aureus; details: Staphylococcus aureus, ATCC6538P; for activity at 10000 µM: read-out: relative %-respiratory activity; for activity at 20000 µM: effector 20 mM
Description: as §3, §4

E. faecalis = test: as above; format: cell-based, Enterococcus faecalis; details: Enterococcus faecalis; for activity at 10000 µM: read-out: relative %-respiratory activity; for activity at 20000 µM: effector 20 mM
Description: as §3, §4

S. cerevisiae = test: as above; format: cell-based, Saccharomyces cerevisiae; details: Saccharomyces cerevisiae; for activity at 10000 µM: read-out: relative %-respiratory activity; for activity at 20000 µM: effector 20 mM
Description: as §3, §4

E. aerogenes ATCC13048e = test: as above; format: cell-based, Enterobacter aerogenes; details: Klebsiella aerogenes, ATCC13048E; for activity at 10000 µM: read-out: relative %-respiratory activity; for activity at 20000 µM: effector 20 mM
Description: as §3, §4

P. aeruginosa = test: as above; format: cell-based, Pseudomonas aeruginosa; details: Pseudomonas aeruginosa; for activity at 10000 µM: read-out: relative %-respiratory activity; for activity at 20000 µM: effector 20 mM
Description: as §3, §4

P. vulgaris ATCC6380 = test: as above; format: cell-based, Proteus vulgaris; details: Proteus vulgaris; for activity at 20000 µM: effector 20 mM
Description: as §3, §4

[3] = JM105, effector 10 mM, 5 μM DCIP, no effector = 100%, n = 10, read-out: relative %-respiratory activity
[4] = HB101, effector 10 mM, 5 μM DCIP, no effector = 100%, n = 18, read-out: relative %-respiratory activity
[5] = effector 10 mM, 5 μM DCIP, no effector = 100%, n = 20
[6] = effector 10 mM, 5 μM DCIP, no effector = 100%, n = 10
[7] = effector 10 mM, 5 μM DCIP, no effector = 100%, n = 26
[8] = effector 10 mM, 5 μM DCIP, no effector = 100%, n = 18
[9] = ATCC6380, effector 10 mM, 5 μM DCIP, no effector = 100%, n = 20, read-out: relative %-respiratory activity
[10] = effector 5 mM, 5 μM DCIP, no effector = 100%, n = 20
[11] = JM105, 5 μM DCIP, no effector = 100%, n = 10
[12] = HB101, 5 μM DCIP, no effector = 100%, n = 18
[13] = 5 μM DCIP, no effector = 100%, n = 20
[14] = 5 μM DCIP, no effector = 100%, n = 10
[15] = 5 μM DCIP, no effector = 100%, n = 26
[16] = 5 μM DCIP, no effector = 100%, n = 18
[17] = ATCC6380, 5 μM DCIP, no effector = 100%, n = 20

O=[N+]([O-])[O-].[K+] [nitrate, potassium nitrate]
slope [1]: 6.9 μC/min
normalized slope [1]: 4.1 μC/min*mm^2
relative activity [1]: 76%
slope [2]: 3.7 μC/min
normalized slope [2]: 2.2 μC/min*mm^2
relative activity [2]: 23%

CC(O)C(=O)O (centres unmarked) [Lactic acid, lactic acid]
activity at 10000 µM (E. coli B): 192%
activity at 10000 µM (E. coli Neotype): 126%
activity at 10000 µM (E. coli JM105; [3]): 303%
activity at 10000 µM (E. coli HB101; [4]): 171%
activity at 10000 µM (S. aureus ATCC6538P; [5]): 622%
activity at 10000 µM (E. faecalis; [5]): 118%
activity at 10000 µM (S. cerevisiae; [6]): 123%
slope [1]: 24.8 μC/min
normalized slope [1]: 14.6 μC/min*mm^2
relative activity [1]: 275%
slope [2]: 27.7 μC/min
normalized slope [2]: 16.3 μC/min*mm^2
relative activity [2]: 169%
activity at 10000 µM (E. aerogenes ATCC13048e; [7]): 182%
activity at 10000 µM (P. aeruginosa; [8]): 122%
activity at 10000 µM (P. vulgaris ATCC6380; [9]): 457%

N=C(N)NCCC[C@H](N)C(=O)O [L-arginine]
activity at 10000 µM (E. coli B): 137%
activity at 10000 µM (E. coli Neotype): 114%
activity at 10000 µM (E. coli JM105; JM105, read-out: relative %-respiratory activity): 163%
activity at 10000 µM (E. coli HB101; HB101, read-out: relative %-respiratory activity): 114%
activity at 10000 µM (S. aureus ATCC6538P): 132%
activity at 10000 µM (E. faecalis): 130%
activity at 10000 µM (S. cerevisiae): 139%
slope [1]: 9.1 μC/min
normalized slope [1]: 5.3 μC/min*mm^2
relative activity [1]: 100%
activity at 10000 µM (E. aerogenes ATCC13048e): 129%
activity at 10000 µM (P. aeruginosa): 155%
activity at 10000 µM (P. vulgaris ATCC6380; ATCC6380, read-out: relative %-respiratory activity): 149%

NCCC[C@H](N)C(=O)O [L-ornithine]
activity at 5000 µM (E. coli B; effector 5 mM): 135%
activity at 5000 µM (E. coli Neotype; effector 5 mM): 134%
activity at 5000 µM (E. coli JM105; JM105, effector 5 mM, 5 μM DCIP, no effector = 100%, n = 10): 165%
activity at 5000 µM (E. coli HB101; HB101, effector 5 mM, 5 μM DCIP, no effector = 100%, n = 18): 114%
activity at 5000 µM (S. aureus ATCC6538P; [10]): 154%
activity at 5000 µM (E. faecalis; [10]): 138%
activity at 5000 µM (S. cerevisiae; effector 5 mM, 5 μM DCIP, no effector = 100%, n = 10): 137%
activity at 5000 µM (E. aerogenes ATCC13048e; effector 5 mM, 5 μM DCIP, no effector = 100%, n = 26): 142%
activity at 5000 µM (P. aeruginosa; effector 5 mM, 5 μM DCIP, no effector = 100%, n = 18): 148%
activity at 5000 µM (P. vulgaris ATCC6380; ATCC6380, effector 5 mM, 5 μM DCIP, no effector = 100%, n = 20): 151%

O=C(CO)[C@@H](O)[C@H](O)[C@H](O)CO [D-fructose]
activity at 20000 µM (E. coli B): 147%
activity at 20000 µM (E. coli Neotype): 125%
activity at 20000 µM (E. coli JM105; [11]): 202%
activity at 20000 µM (E. coli HB101; [12]): 202%
activity at 20000 µM (S. aureus ATCC6538P; [13]): 289%
activity at 20000 µM (E. faecalis; [13]): 463%
activity at 20000 µM (S. cerevisiae; [14]): 152%
activity at 20000 µM (E. aerogenes ATCC13048e; [15]): 275%
activity at 20000 µM (P. aeruginosa; [16]): 136%
activity at 20000 µM (P. vulgaris ATCC6380; [17]): 183%

O=C(O)CC(O)(CC(=O)O)C(=O)O [Citric acid]
activity at 20000 µM (E. coli B): 161%
activity at 20000 µM (E. coli Neotype): 158%
activity at 20000 µM (E. coli JM105; [11]): 113%
activity at 20000 µM (E. coli HB101; [12]): 137%
activity at 20000 µM (S. aureus ATCC6538P; [13]): 83%
activity at 20000 µM (E. faecalis; [13]): 117%
activity at 20000 µM (S. cerevisiae; [14]): 103%
activity at 20000 µM (E. aerogenes ATCC13048e; [15]): 163%
activity at 20000 µM (P. aeruginosa; [16]): 87%
activity at 20000 µM (P. vulgaris ATCC6380; [17]): 142%

OC[C@H]1O[C@@H](O[C@H]2[C@H](O)[C@@H](O)C(O)O[C@@H]2CO)[C@H](O)[C@@H](O)[C@H]1O (stereo partly drawn) [D-lactose]
activity at 20000 µM (E. coli B): 164%
activity at 20000 µM (E. coli Neotype): 150%
activity at 20000 µM (E. coli JM105; [11]): 115%
activity at 20000 µM (E. coli HB101; [12]): 192%
activity at 20000 µM (S. aureus ATCC6538P; [13]): 138%
activity at 20000 µM (E. faecalis; [13]): 123%
activity at 20000 µM (S. cerevisiae; [14]): 126%
activity at 20000 µM (E. aerogenes ATCC13048e; [15]): 268%
activity at 20000 µM (P. aeruginosa; [16]): 108%
activity at 20000 µM (P. vulgaris ATCC6380; [17]): 162%

C[C@H](O)[C@H](O)[C@@H](O)[C@@H](O)C=O [L-rhamnose]
activity at 20000 µM (E. coli B): 119%
activity at 20000 µM (E. coli Neotype): 105%
activity at 20000 µM (E. coli JM105; [11]): 116%
activity at 20000 µM (E. coli HB101; [12]): 103%
activity at 20000 µM (S. aureus ATCC6538P; [13]): 101%
activity at 20000 µM (E. faecalis; [13]): 105%
activity at 20000 µM (S. cerevisiae; [14]): 124%
activity at 20000 µM (E. aerogenes ATCC13048e; [15]): 110%
activity at 20000 µM (P. aeruginosa; [16]): 94%
activity at 20000 µM (P. vulgaris ATCC6380; [17]): 145%

OC[C@H]1O[C@@H]2O[C@H]3[C@H](O)[C@@H](O)[C@@H](O[C@H]4[C@H](O)[C@@H](O)[C@@H](O[C@H]5[C@H](O)[C@@H](O)[C@@H](O[C@H]6[C@H](O)[C@@H](O)[C@@H](O[C@H]7[C@H](O)[C@@H](O)[C@@H](O[C@H]8[C@H](O)[C@@H](O)[C@@H](O[C@H]1[C@H](O)[C@H]2O)O[C@@H]8CO)O[C@@H]7CO)O[C@@H]6CO)O[C@@H]5CO)O[C@@H]4CO)O[C@@H]3CO [Beta-cyclodextrin]
activity at 10000 µM (E. coli B): 125%
activity at 10000 µM (E. coli Neotype): 81%
activity at 10000 µM (E. coli JM105; [3]): 187%
activity at 10000 µM (E. coli HB101; [4]): 132%
activity at 10000 µM (S. aureus ATCC6538P; [5]): 98%
activity at 10000 µM (E. faecalis; [5]): 155%
activity at 10000 µM (S. cerevisiae; [6]): 112%
activity at 10000 µM (E. aerogenes ATCC13048e; [7]): 110%
activity at 10000 µM (P. aeruginosa; [8]): 90%
activity at 10000 µM (P. vulgaris ATCC6380; [9]): 151%

From patent publication US20070099259A1, “ELECTROCHEMICAL ASSAY FOR THE IDENTIFICATION OF MICROORGANISMS” (RAPID LABORATORY MICROSYSTEMS INC., priority 2003, published 2007)
